Data taken from US11672251B2, “Herbicidally active pyridyl-/pyrimidyl-pyrimidine derivatives” (Syngenta Participations AG, priority 2017, dated 2023).

system: Triticum aestivium (TRZAW); test: B2 post-emergence herbicidal activity; format: in vivo; conditions: Test B2b; post-emergence (sprayed after 8 days cultivation); rate 1000 g/ha; evaluated after 13 days; scale 5=total damage to plant, 0=no damage to plant
Procedure: (§1) Seeds of a variety of test species were sown in standard soil in pots: Triticum aestivium (TRZAW), Avena fatua (AVEFA), Alopecurus myosuroides (ALOMY), Echinochloa crus-galli (ECHCG), Lolium perenne (LOLPE), Zea Mays (ZEAMX), Abutilon theophrasti (ABUTH), Amaranthus retroflexus (AMARE) and Setaria faberi (SETFA). After 8 days cultivation (post-emergence) under controlled conditions in a glasshouse (at 24/16° C., day/night; 14 hours light; 65% humidity), the plants were sprayed with an aqueous spray solution derived from the formulation of the technical active ingredient in acetone/water (50:50) solution containing 0.5% Tween 20 (polyoxyethelyene sorbitan monolaurate, CAS RN 9005-64-5). The test plants were then grown in a glasshouse under controlled conditions (at 24/16° C., day/night; 14 hours light; 65% humidity) and watered twice daily. After 13 days, the test was evaluated (5=total damage to plant; 0=no damage to plant).

| SMILES | Control after post-emergence application, damage score: TRAZW |
| --- | --- |
| CCCN(CCC)c1cnc(-c2cncc(F)c2)nc1C(F)(F)F [Compound D14, 2-(5-fluoro-3-pyridyl)-N,N-dipropyl-4-(trifluoromethyl)pyrimidin-5-amine] | 0 |

system: Zea Mays (ZEAMX); test: B2 post-emergence herbicidal activity; format: in vivo; conditions: Test B2a; post-emergence (sprayed after 8 days cultivation); rate 1000 g/ha; evaluated after 13 days; scale 5=total damage to plant, 0=no damage to plant
Procedure: as §1

| SMILES | Control after post-emergence application, damage score: ZEAMX |
| --- | --- |
| CNc1cnc(-c2cncc(F)c2)nc1C [Compound D1, 2-(5-fluoro-3-pyridyl)-N,4-dimethyl-pyrimidin-5-amine] | 1 |
| Cc1nc(-c2cncc(F)c2)ncc1N [Compound D2, 2-(5-fluoro-3-pyridyl)-4-methyl-pyrimidin-5-amine] | 1 |

system: Echinochloa crus-galli (ECHCG); test: B2 post-emergence herbicidal activity; format: in vivo; conditions: Test B2a; post-emergence (sprayed after 8 days cultivation); rate 1000 g/ha; evaluated after 13 days; scale 5=total damage to plant, 0=no damage to plant
Procedure: as §1

| SMILES | Control after post-emergence application, damage score: ECHCG |
| --- | --- |
| CNc1cnc(-c2cncc(F)c2)nc1C [Compound D1, 2-(5-fluoro-3-pyridyl)-N,4-dimethyl-pyrimidin-5-amine] | 2 |
| Cc1nc(-c2cncc(F)c2)ncc1N [Compound D2, 2-(5-fluoro-3-pyridyl)-4-methyl-pyrimidin-5-amine] | 2 |

same assay, conditions: Test B2b; post-emergence (sprayed after 8 days cultivation); rate 1000 g/ha; evaluated after 13 days; scale 5=total damage to plant, 0=no damage to plant

| SMILES | Control after post-emergence application, damage score: ECHCG |
| --- | --- |
| CCCN(CCC)c1cnc(-c2cncc(F)c2)nc1C(F)(F)F [Compound D14, 2-(5-fluoro-3-pyridyl)-N,N-dipropyl-4-(trifluoromethyl)pyrimidin-5-amine] | 4 |

system: Avena fatua (AVEFA); test: B2 post-emergence herbicidal activity; format: in vivo; conditions: Test B2b; post-emergence (sprayed after 8 days cultivation); rate 1000 g/ha; evaluated after 13 days; scale 5=total damage to plant, 0=no damage to plant
Procedure: as §1

| SMILES | Control after post-emergence application, damage score: AVEFA |
| --- | --- |
| CCCN(CCC)c1cnc(-c2cncc(F)c2)nc1C(F)(F)F [Compound D14, 2-(5-fluoro-3-pyridyl)-N,N-dipropyl-4-(trifluoromethyl)pyrimidin-5-amine] | 3 |

system: Amaranthus retroflexus (AMARE); test: B2 post-emergence herbicidal activity; format: in vivo; conditions: Test B2a; post-emergence (sprayed after 8 days cultivation); rate 1000 g/ha; evaluated after 13 days; scale 5=total damage to plant, 0=no damage to plant
Procedure: as §1

| SMILES | Control after post-emergence application, damage score: AMARE |
| --- | --- |
| CNc1cnc(-c2cncc(F)c2)nc1C [Compound D1, 2-(5-fluoro-3-pyridyl)-N,4-dimethyl-pyrimidin-5-amine] | 0 |
| Cc1nc(-c2cncc(F)c2)ncc1N [Compound D2, 2-(5-fluoro-3-pyridyl)-4-methyl-pyrimidin-5-amine] | 1 |

system: Alopecurus myosuroides (ALOMY); test: B2 post-emergence herbicidal activity; format: in vivo; conditions: Test B2b; post-emergence (sprayed after 8 days cultivation); rate 1000 g/ha; evaluated after 13 days; scale 5=total damage to plant, 0=no damage to plant
Procedure: as §1

| SMILES | Control after post-emergence application, damage score: ALOMY |
| --- | --- |
| CCCN(CCC)c1cnc(-c2cncc(F)c2)nc1C(F)(F)F [Compound D14, 2-(5-fluoro-3-pyridyl)-N,N-dipropyl-4-(trifluoromethyl)pyrimidin-5-amine] | 1 |

system: Abutilon theophrasti (ABUTH); test: B2 post-emergence herbicidal activity; format: in vivo; conditions: Test B2a; post-emergence (sprayed after 8 days cultivation); rate 1000 g/ha; evaluated after 13 days; scale 5=total damage to plant, 0=no damage to plant
Procedure: as §1

| SMILES | Control after post-emergence application, damage score: ABUTH |
| --- | --- |
| CNc1cnc(-c2cncc(F)c2)nc1C [Compound D1, 2-(5-fluoro-3-pyridyl)-N,4-dimethyl-pyrimidin-5-amine] | 0 |
| Cc1nc(-c2cncc(F)c2)ncc1N [Compound D2, 2-(5-fluoro-3-pyridyl)-4-methyl-pyrimidin-5-amine] | 1 |

system: Lolium perenne (LOLPE); test: B2 post-emergence herbicidal activity; format: in vivo; conditions: Test B2a; post-emergence (sprayed after 8 days cultivation); rate 1000 g/ha; evaluated after 13 days; scale 5=total damage to plant, 0=no damage to plant
Procedure: as §1

| SMILES | Control after post-emergence application, damage score: LOLPE |
| --- | --- |
| CNc1cnc(-c2cncc(F)c2)nc1C [Compound D1, 2-(5-fluoro-3-pyridyl)-N,4-dimethyl-pyrimidin-5-amine] | 1 |
| Cc1nc(-c2cncc(F)c2)ncc1N [Compound D2, 2-(5-fluoro-3-pyridyl)-4-methyl-pyrimidin-5-amine] | 1 |

same assay, conditions: Test B2b; post-emergence (sprayed after 8 days cultivation); rate 1000 g/ha; evaluated after 13 days; scale 5=total damage to plant, 0=no damage to plant

| SMILES | Control after post-emergence application, damage score: LOLPE |
| --- | --- |
| CCCN(CCC)c1cnc(-c2cncc(F)c2)nc1C(F)(F)F [Compound D14, 2-(5-fluoro-3-pyridyl)-N,N-dipropyl-4-(trifluoromethyl)pyrimidin-5-amine] | 2 |

system: Setaria faberi (SETFA); test: B2 post-emergence herbicidal activity; format: in vivo; conditions: Test B2a; post-emergence (sprayed after 8 days cultivation); rate 1000 g/ha; evaluated after 13 days; scale 5=total damage to plant, 0=no damage to plant
Procedure: as §1

| SMILES | Control after post-emergence application, damage score: SETFA |
| --- | --- |
| CNc1cnc(-c2cncc(F)c2)nc1C [Compound D1, 2-(5-fluoro-3-pyridyl)-N,4-dimethyl-pyrimidin-5-amine] | 3 |
| Cc1nc(-c2cncc(F)c2)ncc1N [Compound D2, 2-(5-fluoro-3-pyridyl)-4-methyl-pyrimidin-5-amine] | 3 |

same assay, conditions: Test B2b; post-emergence (sprayed after 8 days cultivation); rate 1000 g/ha; evaluated after 13 days; scale 5=total damage to plant, 0=no damage to plant

| SMILES | Control after post-emergence application, damage score: SETFA |
| --- | --- |
| CCCN(CCC)c1cnc(-c2cncc(F)c2)nc1C(F)(F)F [Compound D14, 2-(5-fluoro-3-pyridyl)-N,N-dipropyl-4-(trifluoromethyl)pyrimidin-5-amine] | 4 |

system: Triticum aestivium (TRZAW); test: B1 pre-emergence herbicidal activity; format: in vivo; conditions: Test 1b, rate 1000 g/ha, evaluated after 13 days, scale 5=total damage to plant, 0=no damage to plant
Procedure: as §1, with “After” for “After 8 days”, “for one day (pre-emergence)” for “(post-emergence)”

| SMILES | Control after pre-emergence application, damage score: TRAZW |
| --- | --- |
| CCCN(CCC)c1cnc(-c2cncc(F)c2)nc1C(F)(F)F [Compound D14, 2-(5-fluoro-3-pyridyl)-N,N-dipropyl-4-(trifluoromethyl)pyrimidin-5-amine] | 1 |

system: Zea Mays (ZEAMX); test: B1 pre-emergence herbicidal activity; format: in vivo; conditions: Test 1a, rate 1000 g/ha, evaluated after 13 days, scale 5=total damage to plant, 0=no damage to plant
Procedure: as §1, with “After” for “After 8 days”, “for one day (pre-emergence)” for “(post-emergence)”

| SMILES | Control after pre-emergence application, damage score: ZEAMX |
| --- | --- |
| CNc1cnc(-c2cncc(F)c2)nc1C [Compound D1, 2-(5-fluoro-3-pyridyl)-N,4-dimethyl-pyrimidin-5-amine] | 0 |
| Cc1nc(-c2cncc(F)c2)ncc1N [Compound D2, 2-(5-fluoro-3-pyridyl)-4-methyl-pyrimidin-5-amine] | 0 |

system: Echinochloa crus-galli (ECHCG); test: B1 pre-emergence herbicidal activity; format: in vivo; conditions: Test 1a, rate 1000 g/ha, evaluated after 13 days, scale 5=total damage to plant, 0=no damage to plant
Procedure: as §1, with “After” for “After 8 days”, “for one day (pre-emergence)” for “(post-emergence)”

| SMILES | Control after pre-emergence application, damage score: ECHCG |
| --- | --- |
| CNc1cnc(-c2cncc(F)c2)nc1C [Compound D1, 2-(5-fluoro-3-pyridyl)-N,4-dimethyl-pyrimidin-5-amine] | 1 |
| Cc1nc(-c2cncc(F)c2)ncc1N [Compound D2, 2-(5-fluoro-3-pyridyl)-4-methyl-pyrimidin-5-amine] | 1 |

same assay, conditions: Test 1b, rate 1000 g/ha, evaluated after 13 days, scale 5=total damage to plant, 0=no damage to plant

| SMILES | Control after pre-emergence application, damage score: ECHCG |
| --- | --- |
| CCCN(CCC)c1cnc(-c2cncc(F)c2)nc1C(F)(F)F [Compound D14, 2-(5-fluoro-3-pyridyl)-N,N-dipropyl-4-(trifluoromethyl)pyrimidin-5-amine] | 2 |

system: Avena fatua (AVEFA); test: B1 pre-emergence herbicidal activity; format: in vivo; conditions: Test 1b, rate 1000 g/ha, evaluated after 13 days, scale 5=total damage to plant, 0=no damage to plant
Procedure: as §1, with “After” for “After 8 days”, “for one day (pre-emergence)” for “(post-emergence)”

| SMILES | Control after pre-emergence application, damage score: AVEFA |
| --- | --- |
| CCCN(CCC)c1cnc(-c2cncc(F)c2)nc1C(F)(F)F [Compound D14, 2-(5-fluoro-3-pyridyl)-N,N-dipropyl-4-(trifluoromethyl)pyrimidin-5-amine] | 0 |

system: Amaranthus retroflexus (AMARE); test: B1 pre-emergence herbicidal activity; format: in vivo; conditions: Test 1a, rate 1000 g/ha, evaluated after 13 days, scale 5=total damage to plant, 0=no damage to plant
Procedure: as §1, with “After” for “After 8 days”, “for one day (pre-emergence)” for “(post-emergence)”

| SMILES | Control after pre-emergence application, damage score: AMARE |
| --- | --- |
| CNc1cnc(-c2cncc(F)c2)nc1C [Compound D1, 2-(5-fluoro-3-pyridyl)-N,4-dimethyl-pyrimidin-5-amine] | 1 |
| Cc1nc(-c2cncc(F)c2)ncc1N [Compound D2, 2-(5-fluoro-3-pyridyl)-4-methyl-pyrimidin-5-amine] | 1 |

system: Alopecurus myosuroides (ALOMY); test: B1 pre-emergence herbicidal activity; format: in vivo; conditions: Test 1b, rate 1000 g/ha, evaluated after 13 days, scale 5=total damage to plant, 0=no damage to plant
Procedure: as §1, with “After” for “After 8 days”, “for one day (pre-emergence)” for “(post-emergence)”

| SMILES | Control after pre-emergence application, damage score: ALOMY |
| --- | --- |
| CCCN(CCC)c1cnc(-c2cncc(F)c2)nc1C(F)(F)F [Compound D14, 2-(5-fluoro-3-pyridyl)-N,N-dipropyl-4-(trifluoromethyl)pyrimidin-5-amine] | 1 |

system: Abutilon theophrasti (ABUTH); test: B1 pre-emergence herbicidal activity; format: in vivo; conditions: Test 1a, rate 1000 g/ha, evaluated after 13 days, scale 5=total damage to plant, 0=no damage to plant
Procedure: as §1, with “After” for “After 8 days”, “for one day (pre-emergence)” for “(post-emergence)”

| SMILES | Control after pre-emergence application, damage score: ABUTH |
| --- | --- |
| CNc1cnc(-c2cncc(F)c2)nc1C [Compound D1, 2-(5-fluoro-3-pyridyl)-N,4-dimethyl-pyrimidin-5-amine] | 1 |
| Cc1nc(-c2cncc(F)c2)ncc1N [Compound D2, 2-(5-fluoro-3-pyridyl)-4-methyl-pyrimidin-5-amine] | 1 |

system: Lolium perenne (LOLPE); test: B1 pre-emergence herbicidal activity; format: in vivo; conditions: Test 1a, rate 1000 g/ha, evaluated after 13 days, scale 5=total damage to plant, 0=no damage to plant
Procedure: as §1, with “After” for “After 8 days”, “for one day (pre-emergence)” for “(post-emergence)”

| SMILES | Control after pre-emergence application, damage score: LOLPE |
| --- | --- |
| CNc1cnc(-c2cncc(F)c2)nc1C [Compound D1, 2-(5-fluoro-3-pyridyl)-N,4-dimethyl-pyrimidin-5-amine] | 0 |
| Cc1nc(-c2cncc(F)c2)ncc1N [Compound D2, 2-(5-fluoro-3-pyridyl)-4-methyl-pyrimidin-5-amine] | 0 |

same assay, conditions: Test 1b, rate 1000 g/ha, evaluated after 13 days, scale 5=total damage to plant, 0=no damage to plant

| SMILES | Control after pre-emergence application, damage score: LOLPE |
| --- | --- |
| CCCN(CCC)c1cnc(-c2cncc(F)c2)nc1C(F)(F)F [Compound D14, 2-(5-fluoro-3-pyridyl)-N,N-dipropyl-4-(trifluoromethyl)pyrimidin-5-amine] | 1 |

system: Setaria faberi (SETFA); test: B1 pre-emergence herbicidal activity; format: in vivo; conditions: Test 1a, rate 1000 g/ha, evaluated after 13 days, scale 5=total damage to plant, 0=no damage to plant
Procedure: as §1, with “After” for “After 8 days”, “for one day (pre-emergence)” for “(post-emergence)”

| SMILES | Control after pre-emergence application, damage score: SETFA |
| --- | --- |
| CNc1cnc(-c2cncc(F)c2)nc1C [Compound D1, 2-(5-fluoro-3-pyridyl)-N,4-dimethyl-pyrimidin-5-amine] | 3 |
| Cc1nc(-c2cncc(F)c2)ncc1N [Compound D2, 2-(5-fluoro-3-pyridyl)-4-methyl-pyrimidin-5-amine] | 2 |

same assay, conditions: Test 1b, rate 1000 g/ha, evaluated after 13 days, scale 5=total damage to plant, 0=no damage to plant

| SMILES | Control after pre-emergence application, damage score: SETFA |
| --- | --- |
| CCCN(CCC)c1cnc(-c2cncc(F)c2)nc1C(F)(F)F [Compound D14, 2-(5-fluoro-3-pyridyl)-N,N-dipropyl-4-(trifluoromethyl)pyrimidin-5-amine] | 2 |
